Results as given in US20070049593A1 (priority 2004, published 2007).
Where a name gives a salt, the structure may show the parent alone.

The compounds below were run against T1, HCV polymerase (Hepatitis C virus genotype 1b, UniProt P26663) (assay: biochemical).
T1 construct: a region encoding NS5B (J Virol 1991 March, 65(3), 1105-13, 544 amino acids after deletion of 47 amino acids on the C-terminal); 6xHis (C); made in house; host or cells: Escherichia coli
Parameters: species or system HCV BK strain
Procedure, shortened: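 Recombinant HCV BK-strain NS5B (C-terminal 47 aa deleted, His6-tagged, E. coli), 0.5 μg/ml, run with 5 μg/ml in vitro-transcribed RNA template (polyU/3′X), ATP/GTP/CTP 50 μM, UTP 2 μM plus [3H]UTP, pH 7.5, 25° C, 90 min. TCA-precipitated RNA counted by scintillation; IC50 from activity with vs without compound.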

T1 sequence (P26663 2420-2963): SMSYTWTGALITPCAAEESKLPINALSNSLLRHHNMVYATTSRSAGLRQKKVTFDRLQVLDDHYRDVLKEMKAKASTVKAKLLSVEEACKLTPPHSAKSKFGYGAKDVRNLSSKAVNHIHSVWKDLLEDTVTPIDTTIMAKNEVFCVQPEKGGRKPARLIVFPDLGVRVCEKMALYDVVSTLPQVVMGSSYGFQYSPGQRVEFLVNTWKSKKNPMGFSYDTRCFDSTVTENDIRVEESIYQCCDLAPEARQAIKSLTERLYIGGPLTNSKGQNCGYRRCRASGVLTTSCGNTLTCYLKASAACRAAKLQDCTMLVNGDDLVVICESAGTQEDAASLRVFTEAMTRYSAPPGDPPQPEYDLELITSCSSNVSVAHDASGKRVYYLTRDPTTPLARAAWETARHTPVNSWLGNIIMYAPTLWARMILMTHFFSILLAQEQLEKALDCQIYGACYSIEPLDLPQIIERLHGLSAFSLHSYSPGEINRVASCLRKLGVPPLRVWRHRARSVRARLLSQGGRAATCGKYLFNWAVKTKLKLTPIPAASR

`CC(C)(Cc1ccc(C(=O)O)cc1)NC(=O)c1ccc2c(C3CCCCC3)c3n(c2c1)CCOc1ccccc1-3` [Example 2-216, 4-{2-[(12-cyclohexyl-6,7-dihydro-5-oxa-7a-azadibenzo[a,e]azulene-9-carbonyl)amino]-2-methylpropyl}benzoic acid] and `CC(C)(Cc1ccc(O)cc1)NC(=O)c1ccc2c(C3CCCCC3)c3n(c2c1)CCOc1ccccc1-3` [Example 2-220, N-[2-(4-hydroxyphenyl)-1,1-dimethylethyl]-12-cyclohexyl-6,7-dihydro-5-oxa-7a-azadibenzo[a,e]azulene-9-carboxamide] fall in the same range of IC50: 100 to 1000 nM for the first, 100 to 1000 nM for the second.

`O=C(N[C@H](CO)Cc1ccc(O)cc1)c1ccc2c(C3CCCCC3)c3n(c2c1)CCOc1ccccc1-3` [Example 2-217, N—[(S)-1-hydroxymethyl-2-(4-hydroxyphenyl)ethyl]-12-cyclohexyl-6,7-dihydro-5-oxa-7a-azadibenzo[a,e]azulene-9-carboxamide] and `COC(=O)[C@@H](Cc1ccc(O)cc1)NC(=O)c1ccc2c(C3CCCCC3)c3n(c2c1)CCOc1ccccc1-3` [Example 2-238, methyl (R)-2-[(12-cyclohexyl-6,7-dihydro-5-oxa-7a-azadibenzo[a,e]azulene-9-carbonyl)amino]-3-(4-hydroxyphenyl)propionate] cannot be ordered by IC50: under 100 nM for the first, under 100 nM for the second.

`COC(=O)[C@H](Cc1ccc(OC)cc1)NC(=O)c1ccc2c(C3CCCCC3)c3n(c2c1)CCOc1ccccc1-3` [Example 2-218, methyl (S)-2-[(12-cyclohexyl-6,7-dihydro-5-oxa-7a-azadibenzo[a,e]azulene-9-carbonyl)amino]-3-(4-methoxyphenyl)propionate] and `COc1ccc(C[C@H](NC(=O)c2ccc3c(C4CCCCC4)c4n(c3c2)CCOc2ccccc2-4)C(=O)O)cc1` [Example 2-237, (S)-2-[(12-cyclohexyl-6,7-dihydro-5-oxa-7a-azadibenzo[a,e]azulene-9-carbonyl)amino]-3-(4-methoxyphenyl)propionic acid] cannot be ordered by IC50: under 100 nM for the first, under 100 nM for the second.

Compared with `COc1ccc(CC(C)(C)NC(=O)c2ccc3c(C4CCCCC4)c4n(c3c2)CCOc2ccccc2-4)cc1` [Example 2-219, N-[2-(4-methoxyphenyl)-1,1-dimethylethyl]-12-cyclohexyl-6,7-dihydro-5-oxa-7a-azadibenzo[a,e]azulene-9-carboxamide], `CC(C)(COc1ccc(N)cc1)NC(=O)c1ccc2c(C3CCCCC3)c3n(c2c1)CCOc1ccccc1-3` [Example 2-224, N-[2-(4-aminophenoxy)-1,1-dimethylethyl]-12-cyclohexyl-6,7-dihydro-5-oxa-7a-azadibenzo[a,e]azulene-9-carboxamide] is lower in IC50: 100 to 1000 nM for the first, under 100 nM for the second.

`O=C(O)c1ccc2c(C3CCCCC3)c3n(c2c1)CCOc1c-3cccc1N(CCc1ccccc1)CCN1CCCCC1` [Example 2-221, 12-cyclohexyl-4-{N-phenethyl-N-[2-(piperidin-1-yl)ethyl]amino}-6,7-dihydro-5-oxa-7a-azadibenzo[a,e]azulene-9-carboxylic acid] and `CCN(CCN1CCCCCC1)c1cccc2c1OCCn1c-2c(C2CCCCC2)c2ccc(C(=O)O)cc21` [Example 2-231, 4-{N-[2-(azepan-1-yl)ethyl]-N-ethylamino}-12-cyclohexyl-6,7-dihydro-5-oxa-7a-azadibenzo[a,e]azulene-9-carboxylic acid dihydrochloride] cannot be ordered by IC50: under 100 nM for the first, under 100 nM for the second.

`CC(=O)N1CCC(NC(=O)c2ccc3c(C4CCCCC4)c4n(c3c2)CCOc2ccccc2-4)(C(=O)Nc2ccc(/C=C/C(=O)O)cc2)CC1` [Example 2-222, (E)-3-[4-({1-acetyl-4-[(12-cyclohexyl-6,7-dihydro-5-oxa-7a-azadibenzo[a,e]azulene-9-carbonyl)amino]piperidine-4-carbonyl}amino)phenyl]acrylic acid] and `CN1CCC(NC(=O)c2ccc3c(C4CCCCC4)c4n(c3c2)CCOc2ccccc2-4)(C(=O)Nc2ccc(/C=C/C(=O)O)cc2)CC1` [Example 2-223, (E)-3-[4-({4-[(12-cyclohexyl-6,7-dihydro-5-oxa-7a-azadibenzo[a,e]azulene-9-carbonyl)amino]-1-methylpiperidine-4-carbonyl]amino)phenyl]acrylic acid] cannot be ordered by IC50: under 100 nM for the first, under 100 nM for the second.

`CC(C)(NC(=O)c1ccc2c(C3CCCCC3)c3n(c2c1)CCOc1ccccc1-3)c1nc2ccc(C(N)=O)cc2[nH]1` [Example 2-225, N-[1-(6-carbamoyl-1H-benzimidazol-2-yl)-1-methylethyl]-12-cyclohexyl-6,7-dihydro-5-oxa-7a-azadibenzo[a,e]azulene-9-carboxamide] and `Cc1nc(C(C)(C)NC(=O)c2ccc3c(C4CCCCC4)c4n(c3c2)CCOc2ccccc2-4)[nH]c1C(=O)O` [Example 2-227, 2-{1-[(12-cyclohexyl-6,7-dihydro-5-oxa-7a-azadibenzo[a,e]azulene-9-carbonyl)amino]-1-methylethyl}-5-methyl-3H-imidazole-4-carboxylic acid] cannot be ordered by IC50: under 100 nM for the first, under 100 nM for the second.

`CC(C)(COc1ccc(N2CCCC2=O)cc1)NC(=O)c1ccc2c(C3CCCCC3)c3n(c2c1)CCOc1ccccc1-3` [Example 2-226, N-{1,1-dimethyl-2-[4-(2-oxopyrrolidin-1-yl)phenoxy]ethyl}-12-cyclohexyl-6,7-dihydro-5-oxa-7a-azadibenzo[a,e]azulene-9-carboxamide] and `CC(C)(NC(=O)c1ccc2c(C3CCCCC3)c3n(c2c1)CCOc1ccccc1-3)c1ccc(OCC(=O)O)cc1` [Example 2-241, (4-{1-[(12-cyclohexyl-6,7-dihydro-5-oxa-7a-azadibenzo[a,e]azulene-9-carbonyl)amino]-1-methylethyl}phenoxy)acetic acid] cannot be ordered by IC50: under 100 nM for the first, under 100 nM for the second.

`CC(C)(NC(=O)c1ccc2c(C3CCCCC3)c3n(c2c1)CCOc1ccccc1-3)c1ccc(OCc2ccccc2)cc1` [Example 2-228, N-[1-(4-benzyloxyphenyl)-1-methylethyl]-12-cyclohexyl-6,7-dihydro-5-oxa-7a-azadibenzo[a,e]azulene-9-carboxamide] and `CC(C)(NC(=O)c1ccc2c(C3CCCCC3)c3n(c2c1)CCOc1ccccc1-3)c1ccc(O)cc1` [Example 2-230, N-[1-(4-hydroxyphenyl)-1-methylethyl]-12-cyclohexyl-6,7-dihydro-5-oxa-7a-azadibenzo[a,e]azulene-9-carboxamide] cannot be ordered by IC50: under 100 nM for the first, under 100 nM for the second.

`O=C(O)CN1CCC(NC(=O)c2ccc3c(C4CCCCC4)c4n(c3c2)CCOc2ccccc2-4)(C(=O)O)CC1` [Example 2-229, 1-carboxymethyl-4-[(12-cyclohexyl-6,7-dihydro-5-oxa-7a-azadibenzo[a,e]azulene-9-carbonyl)amino]piperidine-4-carboxylic acid monohydrochloride] and `CC(C)(NC(=O)c1ccc2c(C3CCCCC3)c3n(c2c1)CCOc1ccccc1-3)C(=O)N1CCC(CO)CC1` [Example 2-242, N-[2-(4-hydroxymethylpiperidin-1-yl)-1,1-dimethyl-2-oxoethyl]-12-cyclohexyl-6,7-dihydro-5-oxa-7a-azadibenzo[a,e]azulene-9-carboxamide] cannot be ordered by IC50: under 100 nM for the first, under 100 nM for the second.

`CCN(CCC1CCN(C(C)=O)CC1)c1cccc2c1OCCn1c-2c(C2CCCCC2)c2ccc(C(=O)O)cc21` [Example 2-232, 4-{N-[2-(1-acetylpiperidin-4-yl)ethyl]-N-ethylamino)-12-cyclohexyl-6,7-dihydro-5-oxa-7a-azadibenzo[a,e]azulene-9-carboxylic acid] and `CC(=O)N1CCC(CCN(C(C)=O)c2cccc3c2OCCn2c-3c(C3CCCCC3)c3ccc(C(=O)O)cc32)CC1` [Example 2-233, 4-(N-acetyl-N-[2-(1-acetylpiperidin-4-yl)ethyl]amino}-12-cyclohexyl-6,7-dihydro-5-oxa-7a-azadibenzo[a,e]azulene-9-carboxylic acid] cannot be ordered by IC50: under 100 nM for the first, under 100 nM for the second.

`CC(C)(CN1CCC(O)CC1)NC(=O)c1ccc2c(C3CCCCC3)c3n(c2c1)CCOc1ccccc1-3` [Example 2-234, N-[2-(4-hydroxypiperidin-1-yl)-1,1-dimethylethyl]-12-cyclohexyl-6,7-dihydro-5-oxa-7a-azadibenzo[a,e]azulene-9-carboxamide] and `CC(C)(CN[C@H]1CC[C@H](O)CC1)NC(=O)c1ccc2c(C3CCCCC3)c3n(c2c1)CCOc1ccccc1-3` [Example 2-239, N-[2-(trans-4-hydroxycyclohexylamino)-1,1-dimethylethyl]-12-cyclohexyl-6,7-dihydro-5-oxa-7a-azadibenzo[a,e]azulene-9-carboxamide] fall in the same range of IC50: 100 to 1000 nM for the first, 100 to 1000 nM for the second.

`COC(=O)c1nc(C(C)(C)NC(=O)c2ccc3c(C4CCCCC4)c4n(c3c2)CCOc2ccccc2-4)oc1C` [Example 2-235, methyl 2-{1-[(12-cyclohexyl-6,7-dihydro-5-oxa-7a-azadibenzo[a,e]azulene-9-carbonyl)amino]-1-methylethyl}-5-methyloxazole-4-carboxylate] and `Cc1oc(C(C)(C)NC(=O)c2ccc3c(C4CCCCC4)c4n(c3c2)CCOc2ccccc2-4)nc1C(=O)O` [Example 2-236, 2-{1-[(12-cyclohexyl-6,7-dihydro-5-oxa-7a-azadibenzo[a,e]azulene-9-carbonyl)amino]-1-methylethyl}-5-methyloxazole-4-carboxylic acid] cannot be ordered by IC50: under 100 nM for the first, under 100 nM for the second.

`CC(C)(NC(=O)c1ccc2c(C3CCCCC3)c3n(c2c1)CCOc1ccccc1-3)C(=O)N1CCCC(O)C1` (stereo not shown) [Example 2-240, N-[2-(3-hydroxypiperidin-1-yl)-1,1-dimethyl-2-oxoethyl]-12-cyclohexyl-6,7-dihydro-5-oxa-7a-azadibenzo[a,e]azulene-9-carboxamide] and `CCN1CCC(CCN(CC)c2cccc3c2OCCn2c-3c(C3CCCCC3)c3ccc(C(=O)O)cc32)CC1` [Example 2-243, 12-cyclohexyl-4-{N-ethyl-N-[2-(1-ethylpiperidin-4-yl)ethyl]amino}-6,7-dihydro-5-oxa-7a-azadibenzo[a,e]azulene-9-carboxylic acid dihydrochloride] cannot be ordered by IC50: under 100 nM for the first, under 100 nM for the second.
